# Test results from publication PMC12528448, “Resistance to CDK7 inhibitors directed by acquired mutation of a conserved residue in cancer cells” (The EMBO Journal, 2025).
# Where “and” joins values, the source holds several entries; their conditions need not be identical. Equal values may be shown once. Entries after “also recorded” stand apart in the source; their conditions may differ.
# Key:
# Assay type in all cases: cell-based, human
# [1] = tested on: P-Ser807/811 RB1, RB1, CDK4, β-actin in MCF7-CDK4-D99N CL1 cells; experiment: Immunoblotting after Palbociclib, MCF7-CDK4-D99N CL1; settings: homozygous mutant clone CL1 vs parental MCF7; 48 h
# Description: Whole-cell lysates were prepared in RIPA buffer (Sigma-Aldrich), supplemented with protease and phosphatase inhibitor cocktails (Roche). Protein sample concentrations were determined using the Pierce BCA Protein Assay kit (ThermoFisher Scientific). In all, 10–20 µg of total protein was loaded for each sample and resolved on 4–15% Mini-PROTEAN TGX Precast Protein Gels (BIO-RAD). Immunoblotting was performed as described (Patel et al, [2018]), using antibodies diluted 1:1000 for P-CDK2 (Thr160; 2561S), CDK2 (2546S), P-Rb (Ser807/811; 9308), Rb (9309), CDK7 (2916) and CDK12 (11973S), from Cell Signalling Technology. PolII CTD phosphorylation antibodies (P-Ser2 (ab5095) and P-Ser5 (ab5131), used at 1:10,000 dilution), as well as total PolII (ab817; 1:2000 dilution) and β-actin (ab6276; 1:100,000 dilution) were purchased from Abcam. CCNK antibody (Thermofisher A301-939A) was used at a 1:1000 dilution. Band intensities were quantified using ImageJ (Schneider et al, [2012]).
# [2] = tested on: MCF7-CDK4^D99N (CL1) cells; experiment: IncuCyte confluency growth, homozygous CDK4 D99N clone CL1
# Description: (§1) To determine the IC50 of drug treatments on growth, cells were seeded in 96-well culture plates. Two days after seeding, the cells were treated with increasing concentrations of drugs and incubated for 4 days. Cell number was determined using the SRB assay (Skehan et al, [1990]), and IC50 values were calculated using non-linear regression curve fitting in GraphPad Prism v10. For all other growth experiments, cells were seeded into 96-well plates, and appropriate drugs were added 2 days after seeding. Cells were then incubated in an IncuCyte Zoom live-cell imager, with cell confluency measured every 6 h. Cell doubling times were determined by non-linear curve fitting (exponential growth equation) in GraphPad Prism v10.
# [3] = tested on: MCF7 cells; experiment: IncuCyte confluency growth, MCF7; settings: MCF7, 50nM Palbociclib
# Description: as §1
# [4] = homozygous mutant clone, 1 µM Palbociclib
compound,measurement,setting,value
CC(=O)c1c(C)c2cnc(Nc3ccc(N4CCNCC4)cn3)nc2n(C2CCCC2)c1=O [Palbociclib],Reduction in RB1 phosphorylation Ser807/811,[1],blunted; also recorded: less pronounced
same,% Confluency,"[2]; MCF7 CDK4 D99N/D99N CL1, 50nM Palbociclib, 0 Hours",4.47% and 7.41% and 8.54%
same,% Confluency,"[2]; MCF7 CDK4 D99N/D99N CL1, 50nM Palbociclib, 12 Hours",6.57% and 10.81% and 12.65%
same,% Confluency,"[2]; MCF7 CDK4 D99N/D99N CL1, 50nM Palbociclib, 24 Hours",7.94% and 14.04% and 16.28%
same,% Confluency,"[2]; MCF7 CDK4 D99N/D99N CL1, 50nM Palbociclib, 36 Hours",9.96% and 16.26% and 19.65%
same,% Confluency,"[2]; MCF7 CDK4 D99N/D99N CL1, 50nM Palbociclib, 60 Hours",16.05% and 25.67% and 31.53%
same,% Confluency,"[2]; MCF7 CDK4 D99N/D99N CL1, 50nM Palbociclib, 72 Hours",20.59% and 33.83% and 40.66%
same,% Confluency,"[2]; MCF7 CDK4 D99N/D99N CL1, 100nM Palbociclib, 0 Hours",5.11% and 7.96% and 8.92%
same,% Confluency,"[2]; MCF7 CDK4 D99N/D99N CL1, 100nM Palbociclib, 12 Hours",7.75% and 11.79% and 13.54%
same,% Confluency,"[2]; MCF7 CDK4 D99N/D99N CL1, 100nM Palbociclib, 24 Hours",9.54% and 15.28% and 17.18%
same,% Confluency,"[2]; MCF7 CDK4 D99N/D99N CL1, 100nM Palbociclib, 36 Hours",11.96% and 17.72% and 19.72%
same,% Confluency,"[2]; MCF7 CDK4 D99N/D99N CL1, 100nM Palbociclib, 48 Hours",15.88% and 21.63% and 24.14%
same,% Confluency,"[2]; MCF7 CDK4 D99N/D99N CL1, 100nM Palbociclib, 60 Hours",19.72% and 27.06% and 29.56%
same,% Confluency,"[2]; MCF7 CDK4 D99N/D99N CL1, 100nM Palbociclib, 72 Hours",25.72% and 33.76% and 37.42%
same,% Confluency,"[2]; MCF7 CDK4 D99N/D99N CL1, 100nM Palbociclib, 84 Hours",33.55% and 43.80% and 49.43%
same,% Confluency,"[2]; MCF7 CDK4 D99N/D99N CL1, 100nM Palbociclib, 96 Hours",44.26% and 56.08% and 62.73%
same,% Confluency,"[2]; MCF7 CDK4 D99N/D99N CL1, 500nM Palbociclib, 0 Hours",4.28% and 7.96% and 8.62%
same,% Confluency,"[2]; MCF7 CDK4 D99N/D99N CL1, 500nM Palbociclib, 12 Hours",6.49% and 11.80% and 13.50%
same,% Confluency,"[2]; MCF7 CDK4 D99N/D99N CL1, 500nM Palbociclib, 24 Hours",8.63% and 14.98% and 17.24%
same,% Confluency,"[2]; MCF7 CDK4 D99N/D99N CL1, 500nM Palbociclib, 36 Hours",10.70% and 16.67% and 18.25%
same,% Confluency,"[2]; MCF7 CDK4 D99N/D99N CL1, 500nM Palbociclib, 48 Hours",13.35% and 19.15% and 19.83%
same,% Confluency,"[2]; MCF7 CDK4 D99N/D99N CL1, 500nM Palbociclib, 60 Hours",17.13% and 22.40% and 23.57%
same,% Confluency,"[2]; MCF7 CDK4 D99N/D99N CL1, 500nM Palbociclib, 72 Hours",21.34% and 27.28% and 27.86%
same,% Confluency,"[2]; MCF7 CDK4 D99N/D99N CL1, 500nM Palbociclib, 84 Hours",27.05% and 33.32% and 34.40%
same,% Confluency,"[2]; MCF7 CDK4 D99N/D99N CL1, 500nM Palbociclib, 96 Hours",34.72% and 41.63% and 42.47%
same,% Confluency,"[2]; MCF7 CDK4 D99N/D99N CL1, 500nM Palbociclib, […] Hours",39.86%
same,% Confluency,"[2]; MCF7 CDK4 D99N/D99N CL1, 1000nM Palbociclib, 0 Hours",4.23% and 6.28% and 8.65%
same,% Confluency,"[2]; MCF7 CDK4 D99N/D99N CL1, 1000nM Palbociclib, 12 Hours",6.49% and 9.38% and 13.38%
same,% Confluency,"[2]; MCF7 CDK4 D99N/D99N CL1, 1000nM Palbociclib, 24 Hours",8.61% and 12.05% and 16.81%
same,% Confluency,"[2]; MCF7 CDK4 D99N/D99N CL1, 1000nM Palbociclib, 36 Hours",10.75% and 13.98% and 18.02%
same,% Confluency,"[2]; MCF7 CDK4 D99N/D99N CL1, 1000nM Palbociclib, 48 Hours",13.71% and 15.18% and 19.26%
same,% Confluency,"[2]; MCF7 CDK4 D99N/D99N CL1, 1000nM Palbociclib, 60 Hours",17.11% and 17.23% and 21.83%
same,% Confluency,"[2]; MCF7 CDK4 D99N/D99N CL1, 1000nM Palbociclib, 72 Hours",21.46% and 20.52% and 24.80%
same,% Confluency,"[2]; MCF7 CDK4 D99N/D99N CL1, 1000nM Palbociclib, 84 Hours",26.42% and 23.91% and 29.84%
same,% Confluency,"[2]; MCF7 CDK4 D99N/D99N CL1, 1000nM Palbociclib, 96 Hours",33.28% and 29.04% and 35.27%
same,Sensitivity of growth,[2]; homozygous mutant clone vs MCF7,substantially less sensitive
same,Doubling time,[2]; [4],54.6 (95% CI = 48.4–62.1) h
same,Increase of doubling time vs vehicle,[2]; [4],twofold
same,% Conluency,[3]; 48 Hours,21.09% and 17.14% and 31.73%
same,% Conluency,[3]; 60 Hours,26.85% and 21.06% and 38.57%
same,% Conluency,[3]; 72 Hours,33.08% and 25.69% and 49.56%
